Assay results: ChEMBL document CHEMBL4507286 (2021)

Experiments:
[1] = target: Mitogen-activated protein kinase 10 (Homo sapiens) (UniProt P53779)
[2] = target: Tyrosine-protein kinase SYK (Homo sapiens) (UniProt P43405)
[3] = target: Tyrosine-protein kinase Srms (Homo sapiens) (UniProt Q9H3Y6)
[4] = target: Ephrin type-B receptor 3 (Homo sapiens) (UniProt P54753)
[5] = target: Tyrosine-protein kinase Mer (Homo sapiens) (UniProt Q12866)
[6] = target: Aurora kinase C (Homo sapiens) (UniProt Q9UQB9)
[7] = tested on: Epidermal growth factor receptor (Homo sapiens), P00533 [UNDEFINED MUTATION]
[8] = target: cAMP-dependent protein kinase catalytic subunit alpha (Homo sapiens) (UniProt P17612)
[9] = target: cGMP-dependent protein kinase 1 (Homo sapiens) (UniProt Q13976)
Sequence of cGMP-dependent protein kinase 1 (Homo sapiens) (Q13976 whole entry): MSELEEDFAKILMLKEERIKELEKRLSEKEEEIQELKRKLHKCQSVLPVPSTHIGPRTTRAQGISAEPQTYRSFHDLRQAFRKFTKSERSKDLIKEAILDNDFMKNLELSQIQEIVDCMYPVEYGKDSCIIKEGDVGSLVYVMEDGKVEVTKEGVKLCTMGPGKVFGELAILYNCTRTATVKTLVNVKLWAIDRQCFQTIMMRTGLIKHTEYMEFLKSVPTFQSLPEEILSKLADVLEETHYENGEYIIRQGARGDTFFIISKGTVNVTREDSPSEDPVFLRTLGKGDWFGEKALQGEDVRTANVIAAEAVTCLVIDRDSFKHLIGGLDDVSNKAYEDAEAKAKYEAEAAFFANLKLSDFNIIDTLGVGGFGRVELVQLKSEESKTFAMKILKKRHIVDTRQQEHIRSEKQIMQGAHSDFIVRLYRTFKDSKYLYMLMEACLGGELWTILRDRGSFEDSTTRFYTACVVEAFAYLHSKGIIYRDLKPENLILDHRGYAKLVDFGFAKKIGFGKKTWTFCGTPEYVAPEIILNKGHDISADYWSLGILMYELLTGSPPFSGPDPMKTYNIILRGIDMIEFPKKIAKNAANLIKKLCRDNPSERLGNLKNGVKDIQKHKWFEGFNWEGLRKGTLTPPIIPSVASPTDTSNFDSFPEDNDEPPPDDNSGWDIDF

[10] = target: Serine/threonine-protein kinase Nek7 (Homo sapiens) (UniProt Q8TDX7)
Sequence of Serine/threonine-protein kinase Nek7 (Homo sapiens) (Q8TDX7 whole entry, looked up): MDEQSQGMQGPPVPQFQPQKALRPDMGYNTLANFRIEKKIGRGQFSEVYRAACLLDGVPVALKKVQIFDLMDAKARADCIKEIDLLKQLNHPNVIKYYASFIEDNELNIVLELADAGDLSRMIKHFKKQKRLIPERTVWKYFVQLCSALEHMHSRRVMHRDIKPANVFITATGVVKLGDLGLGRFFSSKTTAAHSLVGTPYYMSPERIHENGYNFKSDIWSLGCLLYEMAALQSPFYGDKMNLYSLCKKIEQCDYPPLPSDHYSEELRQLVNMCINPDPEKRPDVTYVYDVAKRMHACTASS

[11] = target: Dual specificity protein kinase CLK3 (Homo sapiens) (UniProt P49761)
[12] = target: Serine/threonine-protein kinase PknB (Mycobacterium tuberculosis) (UniProt P9WI81)
[13] = target: MAP/microtubule affinity-regulating kinase 4 (Homo sapiens) (UniProt Q96L34)
[14] = target: Receptor tyrosine-protein kinase erbB-3 (Homo sapiens) (UniProt P21860)
[15] = target: Angiopoietin-1 receptor (Homo sapiens) (UniProt Q02763)
Sequence of Angiopoietin-1 receptor (Homo sapiens) (Q02763 whole entry): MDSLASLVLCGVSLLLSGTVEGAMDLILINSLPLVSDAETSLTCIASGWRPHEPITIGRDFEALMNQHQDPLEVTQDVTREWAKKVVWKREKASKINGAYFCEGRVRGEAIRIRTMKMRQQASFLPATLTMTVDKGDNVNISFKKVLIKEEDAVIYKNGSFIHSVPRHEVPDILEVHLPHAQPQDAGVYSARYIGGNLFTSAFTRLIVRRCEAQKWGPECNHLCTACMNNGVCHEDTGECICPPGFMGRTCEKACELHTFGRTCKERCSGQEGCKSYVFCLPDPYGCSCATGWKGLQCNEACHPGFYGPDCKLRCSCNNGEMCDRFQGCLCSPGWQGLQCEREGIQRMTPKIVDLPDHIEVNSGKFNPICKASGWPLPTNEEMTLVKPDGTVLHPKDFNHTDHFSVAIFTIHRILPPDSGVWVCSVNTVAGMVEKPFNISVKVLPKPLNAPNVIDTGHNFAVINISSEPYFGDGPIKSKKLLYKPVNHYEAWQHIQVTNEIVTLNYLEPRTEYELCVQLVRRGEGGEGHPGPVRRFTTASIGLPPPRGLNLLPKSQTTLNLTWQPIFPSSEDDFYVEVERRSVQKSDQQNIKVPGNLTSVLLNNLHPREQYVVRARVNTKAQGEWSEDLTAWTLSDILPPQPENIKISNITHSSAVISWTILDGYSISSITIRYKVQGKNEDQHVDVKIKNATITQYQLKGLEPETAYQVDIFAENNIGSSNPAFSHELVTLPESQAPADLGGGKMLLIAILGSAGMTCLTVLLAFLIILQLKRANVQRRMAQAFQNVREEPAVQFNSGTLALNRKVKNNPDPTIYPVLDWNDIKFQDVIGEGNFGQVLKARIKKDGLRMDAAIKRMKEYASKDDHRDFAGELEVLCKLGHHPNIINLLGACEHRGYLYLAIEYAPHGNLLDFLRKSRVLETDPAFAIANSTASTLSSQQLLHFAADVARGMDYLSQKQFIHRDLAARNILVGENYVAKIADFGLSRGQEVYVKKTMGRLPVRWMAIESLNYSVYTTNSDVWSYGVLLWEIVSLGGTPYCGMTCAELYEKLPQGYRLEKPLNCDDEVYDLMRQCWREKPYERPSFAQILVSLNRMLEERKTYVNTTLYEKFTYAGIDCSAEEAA

[16] = target: Serine/threonine-protein kinase 4 (Homo sapiens) (UniProt Q13043)
[17] = target: Serine/threonine-protein kinase DCLK2 (Homo sapiens) (UniProt Q8N568)
[18] = target: Receptor-type tyrosine-protein kinase FLT3 (Homo sapiens) (UniProt P36888)
[19] = tested on: Epidermal growth factor receptor (Homo sapiens), P00533 [G719S]
[20] = target: Serine/threonine-protein kinase Nek10 (Homo sapiens) (UniProt Q6ZWH5)
[21] = target: Serine/threonine-protein kinase PAK 4 (Homo sapiens) (UniProt O96013)
[22] = target: Homeodomain-interacting protein kinase 2 (Homo sapiens) (UniProt Q9H2X6)
Sequence of Homeodomain-interacting protein kinase 2 (Homo sapiens) (Q9H2X6 whole entry, looked up, canonical isoform): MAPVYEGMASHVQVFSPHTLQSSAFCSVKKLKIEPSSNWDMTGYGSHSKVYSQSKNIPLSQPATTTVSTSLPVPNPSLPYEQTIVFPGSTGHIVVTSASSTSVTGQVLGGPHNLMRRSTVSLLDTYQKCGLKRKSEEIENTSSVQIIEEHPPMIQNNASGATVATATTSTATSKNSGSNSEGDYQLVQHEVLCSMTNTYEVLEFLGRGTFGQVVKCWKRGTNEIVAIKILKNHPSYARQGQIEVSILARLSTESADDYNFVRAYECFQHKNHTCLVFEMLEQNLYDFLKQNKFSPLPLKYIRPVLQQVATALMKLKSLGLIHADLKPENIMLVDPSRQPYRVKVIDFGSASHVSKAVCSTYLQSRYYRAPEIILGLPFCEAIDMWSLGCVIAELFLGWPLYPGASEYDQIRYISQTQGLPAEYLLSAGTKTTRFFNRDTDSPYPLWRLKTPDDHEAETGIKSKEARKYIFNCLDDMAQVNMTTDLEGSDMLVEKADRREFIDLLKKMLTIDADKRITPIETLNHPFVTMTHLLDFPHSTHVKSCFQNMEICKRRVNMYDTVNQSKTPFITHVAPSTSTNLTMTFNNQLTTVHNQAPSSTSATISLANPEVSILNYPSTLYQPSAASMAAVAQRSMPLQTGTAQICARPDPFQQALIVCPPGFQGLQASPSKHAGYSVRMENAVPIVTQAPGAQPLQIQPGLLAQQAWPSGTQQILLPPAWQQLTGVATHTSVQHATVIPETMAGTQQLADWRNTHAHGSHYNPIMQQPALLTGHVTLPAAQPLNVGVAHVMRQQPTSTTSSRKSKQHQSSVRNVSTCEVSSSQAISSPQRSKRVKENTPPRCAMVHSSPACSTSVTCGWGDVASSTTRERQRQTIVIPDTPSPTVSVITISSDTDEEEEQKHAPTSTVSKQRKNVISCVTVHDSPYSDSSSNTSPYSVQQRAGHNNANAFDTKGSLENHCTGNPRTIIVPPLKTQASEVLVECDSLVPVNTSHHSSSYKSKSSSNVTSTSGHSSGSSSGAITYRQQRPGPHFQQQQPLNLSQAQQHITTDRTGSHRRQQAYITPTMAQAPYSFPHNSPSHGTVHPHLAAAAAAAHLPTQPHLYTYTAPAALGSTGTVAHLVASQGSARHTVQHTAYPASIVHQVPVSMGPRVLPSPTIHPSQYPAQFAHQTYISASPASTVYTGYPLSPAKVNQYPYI

[23] = target: Casein kinase I isoform delta (Homo sapiens) (UniProt P48730)
Sequence of Casein kinase I isoform delta (Homo sapiens) (P48730 whole entry, looked up, canonical isoform): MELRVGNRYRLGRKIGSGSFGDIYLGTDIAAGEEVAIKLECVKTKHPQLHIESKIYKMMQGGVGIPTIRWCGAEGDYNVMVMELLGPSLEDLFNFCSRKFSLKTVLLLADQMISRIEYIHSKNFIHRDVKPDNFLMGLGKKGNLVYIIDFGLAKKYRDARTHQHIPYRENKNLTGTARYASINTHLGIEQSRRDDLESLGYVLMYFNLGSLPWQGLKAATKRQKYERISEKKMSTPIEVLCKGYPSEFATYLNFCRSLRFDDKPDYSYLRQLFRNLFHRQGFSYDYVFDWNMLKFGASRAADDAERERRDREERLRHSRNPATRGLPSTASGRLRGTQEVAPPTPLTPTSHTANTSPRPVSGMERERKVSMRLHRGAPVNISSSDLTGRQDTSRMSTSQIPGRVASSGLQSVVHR

[24] = tested on: Epidermal growth factor receptor (Homo sapiens), P00533 [UNDEFINED MUTATION]; remark: listed apart in the source
[25] = target: Dual specificity mitogen-activated protein kinase kinase 3 (Homo sapiens) (UniProt P46734)
Sequence of Dual specificity mitogen-activated protein kinase kinase 3 (Homo sapiens) (P46734 whole entry): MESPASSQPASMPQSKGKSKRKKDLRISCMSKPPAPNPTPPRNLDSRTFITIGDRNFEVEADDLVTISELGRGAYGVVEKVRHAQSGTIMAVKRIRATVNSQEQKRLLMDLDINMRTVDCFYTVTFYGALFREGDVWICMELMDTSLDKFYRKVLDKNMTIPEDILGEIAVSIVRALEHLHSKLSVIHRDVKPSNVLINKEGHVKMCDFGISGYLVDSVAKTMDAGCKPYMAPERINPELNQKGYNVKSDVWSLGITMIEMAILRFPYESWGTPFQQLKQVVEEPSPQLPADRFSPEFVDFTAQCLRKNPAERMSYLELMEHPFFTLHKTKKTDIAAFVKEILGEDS

[26] = tested on: Mast/stem cell growth factor receptor Kit (Homo sapiens), P10721 [V559D]
[27] = target: Phosphatidylinositol 3-kinase C2 domain-containing subunit gamma (Homo sapiens) (UniProt O75747)
[28] = target: Casein kinase I isoform alpha-like (Homo sapiens) (UniProt Q8N752)
[29] = target: Mitotic checkpoint serine/threonine-protein kinase BUB1 (Homo sapiens) (UniProt O43683)
[30] = target: Homeodomain-interacting protein kinase 4 (Homo sapiens) (UniProt Q8NE63)
[31] = target: Focal adhesion kinase 1 (Homo sapiens) (UniProt Q05397)
[32] = target: D(1A) dopamine receptor (Homo sapiens) (UniProt P21728); conditions: Compound concentration 10.0 uM
[33] = tested on: Hepatocyte growth factor receptor (Homo sapiens), P08581 [M1250T]
[34] = target: Serine/threonine-protein kinase PRP4 homolog (Homo sapiens) (UniProt Q13523)
[35] = target: Serine/threonine-protein kinase MRCK beta (Homo sapiens) (UniProt Q9Y5S2)
[36] = tested on: Tyrosine-protein kinase ABL1 (Homo sapiens), P00519 [T315I]
[37] = target: Cyclin-dependent kinase 16 (Homo sapiens) (UniProt Q00536)
[38] = target: Vascular endothelial growth factor receptor 3 (Homo sapiens) (UniProt P35916)
[39] = target: Discoidin domain-containing receptor 2 (Homo sapiens) (UniProt Q16832)
[40] = target: Calcium/calmodulin-dependent protein kinase type 1 (Homo sapiens) (UniProt Q14012)
[41] = tested on: Mast/stem cell growth factor receptor Kit (Homo sapiens), P10721 [A829P]
Sequence of Mast/stem cell growth factor receptor Kit (Homo sapiens), P10721 [A829P] (P10721 whole entry A829P): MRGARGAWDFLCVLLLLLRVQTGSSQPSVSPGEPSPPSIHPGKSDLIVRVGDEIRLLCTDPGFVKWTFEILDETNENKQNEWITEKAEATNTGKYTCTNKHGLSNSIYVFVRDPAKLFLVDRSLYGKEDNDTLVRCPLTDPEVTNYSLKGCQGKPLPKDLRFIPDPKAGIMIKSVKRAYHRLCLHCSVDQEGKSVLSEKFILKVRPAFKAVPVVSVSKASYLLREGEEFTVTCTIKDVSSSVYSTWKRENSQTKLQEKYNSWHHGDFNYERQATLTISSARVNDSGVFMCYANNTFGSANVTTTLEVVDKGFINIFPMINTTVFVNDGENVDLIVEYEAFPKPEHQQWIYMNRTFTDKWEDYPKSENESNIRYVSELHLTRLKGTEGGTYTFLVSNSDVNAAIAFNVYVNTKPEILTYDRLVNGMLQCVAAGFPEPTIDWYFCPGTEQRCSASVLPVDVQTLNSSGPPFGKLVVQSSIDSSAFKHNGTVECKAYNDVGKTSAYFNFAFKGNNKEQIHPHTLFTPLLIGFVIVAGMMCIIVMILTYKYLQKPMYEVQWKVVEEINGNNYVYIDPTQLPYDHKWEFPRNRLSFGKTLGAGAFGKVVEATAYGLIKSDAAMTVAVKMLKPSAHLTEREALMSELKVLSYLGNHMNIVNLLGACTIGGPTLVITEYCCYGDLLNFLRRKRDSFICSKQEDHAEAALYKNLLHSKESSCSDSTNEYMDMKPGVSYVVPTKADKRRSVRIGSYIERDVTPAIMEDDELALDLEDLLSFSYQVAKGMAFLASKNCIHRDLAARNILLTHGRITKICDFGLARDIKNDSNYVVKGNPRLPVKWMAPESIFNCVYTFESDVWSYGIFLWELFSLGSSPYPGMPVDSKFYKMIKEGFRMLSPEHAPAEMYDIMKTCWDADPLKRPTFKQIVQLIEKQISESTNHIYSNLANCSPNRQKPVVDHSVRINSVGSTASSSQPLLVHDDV

[42] = target: BDNF/NT-3 growth factors receptor (Homo sapiens) (UniProt Q16620)
[43] = target: Tyrosine-protein kinase ITK/TSK (Homo sapiens) (UniProt Q08881)
[44] = target: Cyclin-dependent kinase 3 (Homo sapiens) (UniProt Q00526)
[45] = target: Casein kinase II subunit alpha' (Homo sapiens) (UniProt P19784)
[46] = Compound concentration 1000.0 nM
[47] = Compound concentration 100.0 nM

C[C@H](NC(=O)Nc1cc2[nH]ncc2c(CO)n1)c1ccccn1 [ERKi-NC]
inactive: residual activity [1, 46] 74.6% | residual activity [2, 46] 100% | residual activity [3, 46] 84% | residual activity [4, 46] 100% | residual activity [5, 46] 100% | residual activity [6, 46] 100% | residual activity [7, 46] 86.6% | residual activity [8, 46] 87.7% | residual activity [9, 46] 90.7% | residual activity [10, 46] 98% | residual activity [11, 46] 100% | residual activity [12, 46] 100% | residual activity [13, 46] 100% | residual activity [14, 46] 60.6% | residual activity [15, 46] 71.1% | residual activity [16, 46] 100% | residual activity [17, 46] 100% | residual activity [18, 46] 100% | residual activity [19, 46] 100% | residual activity [20, 46] 53.8% | residual activity [21, 46] 90.2% | residual activity [22, 46] 83.9% | residual activity [23, 46] 100% | residual activity [25, 46] 76.3% | residual activity [26, 46] 100% | residual activity [27, 46] 93.1% | residual activity [28, 46] 100% | residual activity [29, 46] 100% | residual activity [30, 46] 100% | residual activity [31, 46] 100% | inhibition [32] 4.28% | residual activity [33, 46] 100% | residual activity [34, 46] 100% | residual activity [35, 46] 100% | residual activity [36, 46] 100% | residual activity [37, 46] 100% | residual activity [38, 46] 100% | residual activity [39, 46] 94.3% | residual activity [40, 46] 100% | residual activity [41, 46] 100% | residual activity [42, 46] 68.5% | residual activity [43, 46] 100% | residual activity [44, 46] 100% | residual activity [45, 46] 100%
active: residual activity [24, 46] 34.7%

C[C@@H](NC(=O)Nc1cc2[nH]ncc2c(CO)n1)c1ccccc1 [ERKi]
inactive: residual activity [1, 47] 68.1% | residual activity [2, 47] 100% | residual activity [3, 47] 87.1% | residual activity [4, 47] 94.8% | residual activity [5, 47] 100% | residual activity [6, 47] 100% | residual activity [7, 47] 72.6% | residual activity [8, 47] 91.8% | residual activity [9, 47] 52.4% | residual activity [10, 47] 76.9% | residual activity [11, 47] 82.2% | residual activity [12, 47] 85% | residual activity [13, 47] 96% | residual activity [14, 47] 99% | residual activity [15, 47] 100% | residual activity [16, 47] 100% | residual activity [17, 47] 97.7% | residual activity [18, 47] 85.3% | residual activity [19, 47] 86.3% | residual activity [20, 47] 100% | residual activity [21, 47] 93.7% | residual activity [22, 47] 85.6% | residual activity [23, 47] 84.7% | residual activity [24, 47] 55.9% | residual activity [25, 47] 77% | residual activity [26, 47] 88.3% | residual activity [27, 47] 68.3% | residual activity [28, 47] 79.8% | residual activity [29, 47] 96% | residual activity [30, 47] 77.5% | residual activity [31, 47] 85.7% | inhibition [32] -3.5% | residual activity [33, 47] 72.3% | residual activity [34, 47] 89.7% | residual activity [35, 47] 99.8% | residual activity [36, 47] 100% | residual activity [37, 47] 82.2% | residual activity [38, 47] 100% | residual activity [39, 47] 98.5% | residual activity [40, 47] 67.1% | residual activity [41, 47] 55.1% | residual activity [42, 47] 63.6% | residual activity [43, 47] 83.2% | residual activity [44, 47] 86.1% | residual activity [45, 47] 76%
